The record followed here is patent US20250241942A1, “METHODS OF SYNTHESIZING CONDUCTIVE POLYMERS IN BIOLOGICAL SYSTEMS AND METHODS OF USING CONDUCTIVE POLYMERS” (Purdue Research Foundation, priority 2024, published 2025).

In series [1] the test system is primary motor cortex (M1). More on the design: species or system mice. To be noted: mouse, in vivo.
For the next series, the system named is A549 lung cancer cells. It is filed as cell-based. An excerpt: Because the BDF monomer can lyse the RBCs, the cytotoxicity of the BDF monomer and n-PBDF in A549 lung cancer cells was further studied. It was observed that the n-PBDF polymer is non-toxic to cancer cells, with cell viability remaining close to 100% regardless of the polymer concentration. […] Although the BDF monomer is toxic in cancer cells, it may not impede the in vivo polymerization process, as once the polymerization reaction begins, the toxicity quickly diminishes.

The test system of the next series is zebrafish embryos. Nature of the series: BDF injection into the vasculature of zebrafish embryos, in vivo polymerization and viability. As to the method: Finally, BDF monomer with 1% w/w TPGS in the PBS media solution was injected in the vasculature of 3-day post-fertilization zebrafish embryos to validate the whole blood catalyzed in vivo polymerization of BDF to synthesize n-PBDF. The fish embryos were injected at the end of the tail (FIG. 5A) with different BDF concentrations from 1 mM to 15 mM and kept inside an incubator at 34° C. […] To prevent the misconception of pigmentation in the skin of the embryos as a darkened yolk, zebrafish embryos were treated with 1-phenyl 2-thiourea (PTU). PTU treatment removed the pigment from the skin, allowing for better visualization of the darkening of the embryo's yolk (FIG. 5C). In the case of a 1 mM BDF concentration injection, a clear yolk was observed similar to that seen in control zebrafish embryos. Significant darkening happened when the concentration was increased to 10 mM. Furthermore, 15 mM BDF concentration was injected into the zebrafish embryo, where the yolk was even darker with respect to the 10 mM BDF concentration injection. To characterize the darkened yolk, UV-Vis-NIR measurements were collected on all zebrafish embryos with different concentrations of BDF injections along with the control fish (only PBS injection). […]

A short description of series [2]: Solubility of BDF monomer. It is filed as physicochemical. An excerpt: Though existing methods of synthesizing n-PBDF are efficient, they are unsuitable within living systems. […] Existing synthesis methods also require high temperatures and employ dimethyl sulfoxide (DMSO) as a solvent. To overcome this limitation, methods were investigated for synthesizing n-PBDF in aqueous media using surfactants, which are also utilized in the synthesis of conductive polymer nanoparticles. […] Using TPGS as a surfactant, n-PBDF can be polymerized in aqueous media through emulsion polymerization. By incorporating an insignificant amount (5%) of DMSO and 1% w/w TPGS, this method was found suitable for use in biological systems, as discussed below.

Series [3] can be described thus: Subcutaneous administration of BDF and n-PBDF solutions in mice, observation and complete blood count. To be noted: mouse, in vivo, sc. From the text:
Furthermore, the non-toxicity of the polymerization process and the resulting polymer was confirmed by subcutaneously administering BDF and n-PBDF solutions in mice. […] The investigations reported below explored the use of n-PBDF to modulate the neural activity of cortical pyramidal neurons in mice acute brain slices, showing the interaction of n-PBDF with the neurons at a cellular level, leading to a decrease in the intrinsic excitability of the neurons. […] These and other aspects of the method will be more fully appreciated from the following discussion of the investigations.

Another series deals with red blood cells. The series is described as follows: Hemolysis assay on reaction components. It is filed as cell-based. Particulars: 0.2 mg/mL. As for the experimental part:
To evaluate the efficacy of polymerization without the need for constant stirring, a method was employed whereby the solution was placed in an incubator with a rocker at 37° C. Upon introduction of whole blood into the reaction vessel without stirring, a sluggish reaction was observed, and the vessel turned black after three hours into the reaction. […] Based on these observations from the reaction without stirring, it was deduced the lysis of the RBCs with the BDF monomer. To confirm, a hemolysis assay was used on the various reaction components and with different BDF concentrations. […] This explained the initial slow reaction and formation of n-PBDF without stirring.

Like-named read-outs stand apart in the source and are kept apart here.

By cell viability is commonly meant a per cent measure of how many cells are alive, often set against a control. A high value points to less harm to the cells. As to “n-doped poly(3,7-dihydrobenzo[1,2-b:4,5-b′]difuran-2,6-dione [n-PBDF]”, the “retention at the injection site” value in series [1] is listed as “remained in the injection site for extended periods”. In the series with A549 lung cancer cells, this molecule came in with a cell viability of approximately 100%.

On to `O=C1Cc2cc3c(cc2O1)CC(=O)O3` [BDF, 3,7-dihydrobenzo[1,2-b:4,5-b′]difuran-2,6-dione], for which the embryos alive entry in the series with zebrafish embryos (after 24 h incubation, BDF 1 mM to 15 mM, 34° C.) was “at least 80%”. Further, in the series with zebrafish embryos (zebrafish embryos), the “toxicity of BDF injection and in vivo polymerization” value is “almost no toxicity”. Besides, the “solubility in aqueous media” value in series [2] (aqueous media) is reported as “insoluble”. The “solubility in organic solvents” value in series [2] (organic solvents) is given as “limited solubility”. Besides, the “complete blood count (CBC), signs of acute toxicity” value in series [3] was “no signs of acute toxicity except for a minor level of hemolysis”. Moreover, the “physical stress or discomfort” value in series [3] is “No physical stress or discomfort was observed”. For the same molecule, the cell viability entry in the series on A549 lung cancer cells was “slightly improved cell viability at higher concentrations”; in the series on A549 lung cancer cells (human, 72 h, 5 μg/mL), “approximately 75%”; in the series with A549 lung cancer cells (human, 72 h, 0.167 mg/mL), “around 10%”. Besides, the hemolysis result in the series with red blood cells is given as “approximately 40%”.
